Like-named read-outs stand apart in the source and are kept apart here.
Experiment: Stability study by HPLC-MS under ambient conditions
Assay type: physicochemical
Source text: High performance liquid chromatography-mass spectroscopy (HPLC-MS) was used to monitor the degradation of four synthetic compounds over a period of time.

[1] = room temperature, air, water solution, neutral pH, HPLC-MS

Row | Substance | degradation after 7 days (estimated based on UV signal) [1] | degradation after 7 days (estimated based on UV signal)
1 | [Nle^8,18]hPTH(1-37) [[Nle^8,11]hPTH(1-37)] | about 70% | 
2 | [Nle^8,18]hPTH(1-84) [[Nle^8,11]hPTH(1-84)] |  | less than 10%
3 | hPTH(1-37) (SVSEIQLMHNLGKHLNSMERVEWLRKKLQDVHNFVAL) | about 70% | 

— US20140228293A1, “PARATHYROID HORMONE ANALOGS, COMPOSITIONS AND USES THEREOF” (THE GENERAL HOSPITAL CORPORATION, priority 2011, published 2014)
